Laboratory results reported in US20260265329A1, “POLYPEPTIDE AND DERIVATIVE THEREOF, COMPOSITION, AND USE THEREOF” (HANGZHOU SCIWIND BIOSCIENCES CO., LTD., priority 2023, published 2026).
Values belong to the molecule of their own block, whether it stands above or below them. Starred links: 1 amine or outer side, 2 acyl side, 3 side chain; linkers in the order of their positions; H or OH if unused. Non-standard residues stand in square brackets, D forms with d. Residues, ends and D or L forms follow the SMILES beside them. *: point of attachment. C20 diacid = O=C(O)CCCCCCCCCCCCCCCCCCC(=O)*; γGlu = O=C(O)[C@H](CCC(=O)[*:2])N[*:1]; Hyp = O=C(O)[C@@H]1C[C@@H](O)CN1

How the values were obtained:
human amylin receptors = target: T1, human amylin receptors (Homo sapiens, UniProt O60896+P30988); assay: Luciferase assay in stably transfected amylin receptor/CRE-luc CHO cell line; assay type: cell-based; settings: for Relative activity: EC50 ratio of Cagrilintide to the compound, Cagrilintide 100%; for EC50: amylin receptor/CRE-luc CHO cells, 24 hours incubation, luminescence
T1 construct: host or cells: CHO-K1/Ga15/AMY3 cells, further stably transfected with a CRE-luciferase plasmid
T1 sequence (P30988 25-474): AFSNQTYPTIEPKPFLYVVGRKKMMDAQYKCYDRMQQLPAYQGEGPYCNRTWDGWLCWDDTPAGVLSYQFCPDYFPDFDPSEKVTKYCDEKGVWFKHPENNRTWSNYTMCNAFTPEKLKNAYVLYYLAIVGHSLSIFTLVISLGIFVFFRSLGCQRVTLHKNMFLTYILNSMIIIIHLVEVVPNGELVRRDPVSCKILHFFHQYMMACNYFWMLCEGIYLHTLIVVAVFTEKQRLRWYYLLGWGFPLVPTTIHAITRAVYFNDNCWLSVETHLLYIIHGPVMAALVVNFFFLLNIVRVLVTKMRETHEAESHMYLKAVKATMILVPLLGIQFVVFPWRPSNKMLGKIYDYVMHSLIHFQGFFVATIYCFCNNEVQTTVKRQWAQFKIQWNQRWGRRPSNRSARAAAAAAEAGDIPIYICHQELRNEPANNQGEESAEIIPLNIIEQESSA
T1 sequence (O60896 24-148 partner): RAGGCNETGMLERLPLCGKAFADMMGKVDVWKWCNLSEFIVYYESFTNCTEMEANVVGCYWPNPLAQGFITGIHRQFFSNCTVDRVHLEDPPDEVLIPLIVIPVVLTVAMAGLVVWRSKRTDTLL

[1] = Heat accelerated stability assay, 40° C., detection on 7 d and 28 d; assay type: physicochemical; settings: for Purity from the reversed phase chromatography-214 nm, 0 d / Purity from the reversed phase chromatography-214 nm, 7 d / Purity from the reversed phase chromatography-214 nm, 28 d: 1 mg/mL, pH about 7.4, 40° C.; for Change (7 d − 0 d): purity on 7 d − purity on 0 d; for Change (7 d − 0 d) / Change (28 d − 0 d): 40° C., pH about 7.4; for Change (28 d − 0 d): purity on 28 d − purity on 0 d
Procedure: The derivatives (1 mg/mL) were mixed with sodium dihydrogen phosphate (1.42 mg/mL) and dissolved in ultrapure water. After adjusting pH to about 7.4 with hydrochloric acid/sodium hydroxide, the solution was filtered into a sterilized vial in a clean bench using a 0.22 μm sterile filter. The vial was then capped and placed into the stability test chamber at 40° C. Detections were made on Days 7 (7d) and 28 (28d), and during the assay, changes in the characteristics and properties of the polypeptides were observed and recorded. The sample was then centrifuged for 3 min at 10000 rpm at 4° C., and the supernatant was transferred to a liquid phase sample vial for detecting the concentration and purity of the polypeptides using liquid phase chromatography described as below.
Conditions of the reversed phase chromatography Flow rate: 1.0 mL/min; Autosampler temperature: 15° C.; Column temperature: 25° C.; Detection wavelength: 214 nm; Mobile phase A: 100% H2O+0.05% TFA; Mobile phase B: 100% ACN; and Gradient of elution listed in Table 4: […]

[2] = target: T2, human amylin receptor on CHO-K1/Ga15/AMY3 cells (amylin receptor/CRE-luc cell line) (human) (UniProt P30988); assay: cell-based or functional assay
T2 sequence (looked up) 1: T1 sequence (P30988 25-474)
T2 sequence (looked up) 2: T1 sequence (O60896 24-148 partner)

Molecule: CC[C@H](C)[C@H](NC(=O)[C@H](CC(=O)O)NC(=O)[C@H](CCCNC(=N)N)NC(=O)[C@H](CC(=O)O)NC(=O)[C@H](CCCNC(=N)N)NC(=O)[C@H](CC(=O)O)NC(=O)[C@@H](NC(=O)[C@H](Cc1ccccc1)NC(=O)[C@H](Cc1c[nH]cn1)NC(=O)[C@H](CCCNC(=N)N)NC(=O)[C@H](CC(C)C)NC(=O)[C@H](Cc1ccccc1)NC(=O)[C@H](CC(=O)O)NC(=O)[C@H](C)NC(=O)[C@H](CC(C)C)NC(=O)[C@H](CCCNC(=N)N)NC(=O)CNC(=O)[C@H](CC(C)C)NC(=O)[C@@H](NC(=O)[C@H](C)NC(=O)[C@@H](NC(=O)[C@H](CO)NC(=O)[C@H](CC(C)C)NC(=O)[C@H](CCC(N)=O)NC(=O)[C@H](CO)NC(=O)[C@H](C)NC(=O)CC[C@H](NC(=O)CCCCCCCCCCCCCCCCCCC(=O)O)C(=O)O)[C@@H](C)O)C(C)C)[C@@H](C)O)C(=O)N[C@@H](CC(C)C)C(=O)N1CCC[C@H]1C(=O)N1CCC[C@H]1C(=O)N[C@H](C(=O)N[C@@H](CC(N)=O)C(=O)N[C@H](C(=O)NCC(=O)N[C@@H](CO)C(=O)N[C@@H](CC(N)=O)C(=O)N[C@H](C(=O)N1CCC[C@H]1C(N)=O)[C@@H](C)O)C(C)C)[C@@H](C)O [M4] ({C20 diacid-γGlu}-ASQLSTAVLGRLADFLRHFTDRDRDILPPTNVGSNTP-NH2)
- Relative activity (human amylin receptors): 32%
- EC50 (human amylin receptors): 81 pM
- Purity from the reversed phase chromatography-214 nm, 0 d [1]: 95
- Purity from the reversed phase chromatography-214 nm, 7 d [1]: 94.22
- Purity from the reversed phase chromatography-214 nm, 28 d [1]: 92.25
- Change (7 d − 0 d) [1]: −0.78
- Change (28 d − 0 d) [1]: −2.75

Molecule: CC[C@H](C)[C@H](NC(=O)[C@@H]1CCCN1C(=O)[C@H](CCCCN)NC(=O)[C@H](CC(C)C)NC(=O)[C@H](CC(N)=O)NC(=O)[C@H](CC(N)=O)NC(=O)[C@H](CO)NC(=O)[C@H](CO)NC(=O)[C@H](Cc1c[nH]cn1)NC(=O)[C@H](CCCNC(=N)N)NC(=O)[C@H](CC(C)C)NC(=O)[C@H](Cc1ccccc1)NC(=O)[C@H](CC(=O)O)NC(=O)[C@H](C)NC(=O)[C@H](CC(C)C)NC(=O)[C@H](CCCNC(=N)N)NC(=O)[C@H](CCC(N)=O)NC(=O)[C@@H](NC(=O)[C@@H](NC(=O)[C@H](C)NC(=O)[C@@H](NC(=O)[C@H](CO)NC(=O)[C@H](CC(C)C)NC(=O)[C@H](CCC(N)=O)NC(=O)[C@H](CO)NC(=O)[C@H](C)NC(=O)CC[C@H](NC(=O)CCCCCCCCCCCCCCCCCCC(=O)O)C(=O)O)[C@@H](C)O)C(C)C)[C@@H](C)O)C(=O)N[C@@H](CC(C)C)C(=O)N1CCC[C@H]1C(=O)N1CCC[C@H]1C(=O)N[C@H](C(=O)N[C@@H](CC(N)=O)C(=O)N[C@H](C(=O)NCC(=O)N[C@@H](CO)C(=O)N[C@@H](CC(N)=O)C(=O)N[C@H](C(=O)N1C[C@H](O)C[C@H]1C(N)=O)[C@@H](C)O)C(C)C)[C@@H](C)O [M7] ({C20 diacid-γGlu}-ASQLSTAVTQRLADFLRHSSNNLKPILPPTNVGSNT[Hyp]-NH2)
- Relative activity (human amylin receptors): 39%
- EC50 (human amylin receptors): 66 pM
- Purity from the reversed phase chromatography-214 nm, 0 d [1]: 93
- Purity from the reversed phase chromatography-214 nm, 7 d [1]: 91.39
- Purity from the reversed phase chromatography-214 nm, 28 d [1]: 91.53
- Change (7 d − 0 d) [1]: −1.61
- Change (28 d − 0 d) [1]: −1.47

B1: M26 (peptide)
peptide: {C20 diacid}-EASQLSTAATQRLADFLRHSSNNLKPILPPTNVGSNT[Hyp]-NH2
SMILES: CC[C@H](C)[C@H](NC(=O)[C@@H]1CCCN1C(=O)[C@H](CCCCN)NC(=O)[C@H](CC(C)C)NC(=O)[C@H](CC(N)=O)NC(=O)[C@H](CC(N)=O)NC(=O)[C@H](CO)NC(=O)[C@H](CO)NC(=O)[C@H](Cc1c[nH]cn1)NC(=O)[C@H](CCCNC(=N)N)NC(=O)[C@H](CC(C)C)NC(=O)[C@H](Cc1ccccc1)NC(=O)[C@H](CC(=O)O)NC(=O)[C@H](C)NC(=O)[C@H](CC(C)C)NC(=O)[C@H](CCCNC(=N)N)NC(=O)[C@H](CCC(N)=O)NC(=O)[C@@H](NC(=O)[C@H](C)NC(=O)[C@H](C)NC(=O)[C@@H](NC(=O)[C@H](CO)NC(=O)[C@H](CC(C)C)NC(=O)[C@H](CCC(N)=O)NC(=O)[C@H](CO)NC(=O)[C@H](C)NC(=O)[C@H](CCC(=O)O)NC(=O)CCCCCCCCCCCCCCCCCCC(=O)O)[C@@H](C)O)[C@@H](C)O)C(=O)N[C@@H](CC(C)C)C(=O)N1CCC[C@H]1C(=O)N1CCC[C@H]1C(=O)N[C@H](C(=O)N[C@@H](CC(N)=O)C(=O)N[C@H](C(=O)NCC(=O)N[C@@H](CO)C(=O)N[C@@H](CC(N)=O)C(=O)N[C@H](C(=O)N1C[C@H](O)C[C@H]1C(N)=O)[C@@H](C)O)C(C)C)[C@@H](C)O
- EC50 (luciferase assay, amylin receptor/CRE-luc CHO cells) [2]: 49 pM
- Relative activity (the EC50 ratio of Cagrilintide to the compound) [2]: 103%

Now from value to molecule:

- Relative activity (human amylin receptors): 53%
- EC50 (human amylin receptors): 49 pM
- Purity from the reversed phase chromatography-214 nm, 0 d [1]: 86.93
- Purity from the reversed phase chromatography-214 nm, 7 d [1]: 86.57
- Purity from the reversed phase chromatography-214 nm, 28 d [1]: 87.31
- Change (7 d − 0 d) [1]: −0.36
- Change (28 d − 0 d) [1]: 0.38
Molecule: CC[C@H](C)[C@H](NC(=O)[C@H](CC(=O)O)NC(=O)[C@H](CCCNC(=N)N)NC(=O)[C@H](CC(=O)O)NC(=O)[C@H](CCCNC(=N)N)NC(=O)[C@H](CC(=O)O)NC(=O)[C@@H](NC(=O)[C@H](Cc1ccccc1)NC(=O)[C@H](Cc1c[nH]cn1)NC(=O)[C@H](CCCNC(=N)N)NC(=O)[C@H](CC(C)C)NC(=O)[C@H](Cc1ccccc1)NC(=O)[C@H](CC(=O)O)NC(=O)[C@H](C)NC(=O)[C@H](CC(C)C)NC(=O)[C@H](CCCNC(=N)N)NC(=O)[C@H](CCC(N)=O)NC(=O)[C@@H](NC(=O)[C@@H](NC(=O)[C@H](C)NC(=O)[C@@H](NC(=O)[C@H](CO)NC(=O)[C@H](CC(C)C)NC(=O)[C@H](CCC(N)=O)NC(=O)[C@H](CO)NC(=O)[C@H](C)NC(=O)CC[C@H](NC(=O)CCCCCCCCCCCCCCCCCCC(=O)O)C(=O)O)[C@@H](C)O)C(C)C)[C@@H](C)O)[C@@H](C)O)C(=O)N[C@@H](CC(C)C)C(=O)N1CCC[C@H]1C(=O)N1CCC[C@H]1C(=O)N[C@H](C(=O)N[C@@H](CC(N)=O)C(=O)N[C@H](C(=O)NCC(=O)N[C@@H](CO)C(=O)N[C@@H](CC(N)=O)C(=O)N[C@H](C(=O)N1CCC[C@H]1C(N)=O)[C@@H](C)O)C(C)C)[C@@H](C)O [M8] ({C20 diacid-γGlu}-ASQLSTAVTQRLADFLRHFTDRDRDILPPTNVGSNTP-NH2)

- Relative activity (human amylin receptors): 100%
- EC50 (human amylin receptors): 26 pM
- Purity from the reversed phase chromatography-214 nm, 0 d [1]: 88.15
- Purity from the reversed phase chromatography-214 nm, 7 d [1]: 89.62
- Purity from the reversed phase chromatography-214 nm, 28 d [1]: 90.99
- Change (7 d − 0 d) [1]: 1.47
- Change (28 d − 0 d) [1]: 2.84
Molecule: CC[C@H](C)[C@H](NC(=O)[C@@H]1CCCN1C(=O)[C@H](CCCCN)NC(=O)[C@H](CC(C)C)NC(=O)[C@H](CC(N)=O)NC(=O)[C@H](CC(N)=O)NC(=O)[C@H](CO)NC(=O)[C@H](CO)NC(=O)[C@H](Cc1c[nH]cn1)NC(=O)[C@H](CCCNC(=N)N)NC(=O)[C@H](CC(C)C)NC(=O)[C@H](Cc1ccccc1)NC(=O)[C@H](CC(=O)O)NC(=O)[C@H](C)NC(=O)[C@H](CC(C)C)NC(=O)[C@H](CCCNC(=N)N)NC(=O)[C@H](CCC(N)=O)NC(=O)[C@H](CC(C)C)NC(=O)[C@@H](NC(=O)[C@H](C)NC(=O)[C@@H](NC(=O)[C@H](CO)NC(=O)[C@H](CC(C)C)NC(=O)[C@H](CCC(N)=O)NC(=O)[C@H](CO)NC(=O)[C@H](C)NC(=O)CC[C@H](NC(=O)CCCCCCCCCCCCCCCCCCC(=O)O)C(=O)O)[C@@H](C)O)C(C)C)C(=O)N[C@@H](CC(C)C)C(=O)N1CCC[C@H]1C(=O)N1CCC[C@H]1C(=O)N[C@H](C(=O)N[C@@H](CC(N)=O)C(=O)N[C@H](C(=O)NCC(=O)N[C@@H](CO)C(=O)N[C@@H](CC(N)=O)C(=O)N[C@H](C(=O)N1C[C@H](O)C[C@H]1C(N)=O)[C@@H](C)O)C(C)C)[C@@H](C)O [M9] ({C20 diacid-γGlu}-ASQLSTAVLQRLADFLRHSSNNLKPILPPTNVGSNT[Hyp]-NH2)
